Assays:
rat mGlu4 = rat mGlu4 (Rattus norvegicus, UniProt P31423); experiment: functional assay using the rat mGlu4 protein; assay type: cell-based
[1] = plasma protein binding, mouse; assay type: in vitro ADME
CYP2D6 = CYP2D6 (Homo sapiens, UniProt P10635); experiment: CYP450 inhibition, cocktail approach in human liver microsomes; assay type: in vitro ADME
[2] = system: panel of 96 kinase targets; experiment: DiscoveRx KINOMEscan kinase panel; assay type: binding
in vivo [3] = details: rat, po, 10 mg/kg
[4] = plasma protein binding, rat; assay type: in vitro ADME
[5] = plasma/brain PO snapshot study in rats; assay type: in vivo, rat
[6] = plasma protein binding, rhesus; assay type: in vitro ADME; details: rhesus monkey
[7] = in vivo PK, rhesus IV cassette; details: rhesus monkey, plasma
mGlu6 = mGlu6 (Homo sapiens, UniProt O15303); experiment: mGlu selectivity assays in fold-shift format; assay type: cell-based
mGlu6, sequence (O15303 25-877): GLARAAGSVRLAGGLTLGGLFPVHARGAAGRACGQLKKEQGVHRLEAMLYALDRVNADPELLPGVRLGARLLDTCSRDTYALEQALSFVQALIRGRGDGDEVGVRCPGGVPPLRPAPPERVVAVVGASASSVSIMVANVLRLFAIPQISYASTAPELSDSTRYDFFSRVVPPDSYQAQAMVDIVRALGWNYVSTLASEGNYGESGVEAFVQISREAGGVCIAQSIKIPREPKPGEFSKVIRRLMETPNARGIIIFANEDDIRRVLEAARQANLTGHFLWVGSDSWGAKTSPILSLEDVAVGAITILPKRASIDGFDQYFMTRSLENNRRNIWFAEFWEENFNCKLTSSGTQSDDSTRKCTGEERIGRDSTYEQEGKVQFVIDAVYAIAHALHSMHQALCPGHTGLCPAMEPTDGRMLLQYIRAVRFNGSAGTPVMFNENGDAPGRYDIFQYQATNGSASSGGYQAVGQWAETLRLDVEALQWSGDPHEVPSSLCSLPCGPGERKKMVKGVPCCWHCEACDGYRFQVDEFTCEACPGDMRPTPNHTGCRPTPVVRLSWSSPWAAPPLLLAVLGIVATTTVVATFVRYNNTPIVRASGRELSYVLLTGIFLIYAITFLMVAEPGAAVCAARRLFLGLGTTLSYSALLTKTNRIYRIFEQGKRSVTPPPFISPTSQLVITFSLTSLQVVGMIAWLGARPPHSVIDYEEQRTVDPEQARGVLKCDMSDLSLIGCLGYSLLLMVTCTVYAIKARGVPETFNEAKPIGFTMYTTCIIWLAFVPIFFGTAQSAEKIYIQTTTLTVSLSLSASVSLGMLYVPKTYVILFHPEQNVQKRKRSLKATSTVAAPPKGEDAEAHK

[8] = molecular target: T1, monoamine oxidase-B (MAO-B) (Homo sapiens, UniProt P27338); experiment: wider selectivity panel, MAO-B
T1 sequence (P27338 1-520): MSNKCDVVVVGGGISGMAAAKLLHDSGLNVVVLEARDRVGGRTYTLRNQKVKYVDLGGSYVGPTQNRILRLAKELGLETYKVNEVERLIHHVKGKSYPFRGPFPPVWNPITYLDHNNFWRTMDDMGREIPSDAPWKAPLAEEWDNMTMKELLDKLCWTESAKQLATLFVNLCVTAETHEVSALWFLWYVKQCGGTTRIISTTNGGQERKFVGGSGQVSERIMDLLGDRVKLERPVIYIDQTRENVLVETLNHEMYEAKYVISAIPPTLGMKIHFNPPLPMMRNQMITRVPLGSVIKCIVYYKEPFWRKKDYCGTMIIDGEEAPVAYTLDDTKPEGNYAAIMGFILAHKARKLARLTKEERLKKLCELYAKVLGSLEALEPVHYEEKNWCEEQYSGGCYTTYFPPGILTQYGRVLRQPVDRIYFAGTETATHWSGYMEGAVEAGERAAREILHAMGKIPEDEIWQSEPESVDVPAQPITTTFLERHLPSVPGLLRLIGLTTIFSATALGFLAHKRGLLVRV

CYP1A2 [9] = molecular target: T2, CYP1A2 (Homo sapiens, UniProt P05177); experiment: CYP450 inhibition, cocktail approach in human liver microsomes; assay type: in vitro ADME
T2 sequence (P05177 1-516): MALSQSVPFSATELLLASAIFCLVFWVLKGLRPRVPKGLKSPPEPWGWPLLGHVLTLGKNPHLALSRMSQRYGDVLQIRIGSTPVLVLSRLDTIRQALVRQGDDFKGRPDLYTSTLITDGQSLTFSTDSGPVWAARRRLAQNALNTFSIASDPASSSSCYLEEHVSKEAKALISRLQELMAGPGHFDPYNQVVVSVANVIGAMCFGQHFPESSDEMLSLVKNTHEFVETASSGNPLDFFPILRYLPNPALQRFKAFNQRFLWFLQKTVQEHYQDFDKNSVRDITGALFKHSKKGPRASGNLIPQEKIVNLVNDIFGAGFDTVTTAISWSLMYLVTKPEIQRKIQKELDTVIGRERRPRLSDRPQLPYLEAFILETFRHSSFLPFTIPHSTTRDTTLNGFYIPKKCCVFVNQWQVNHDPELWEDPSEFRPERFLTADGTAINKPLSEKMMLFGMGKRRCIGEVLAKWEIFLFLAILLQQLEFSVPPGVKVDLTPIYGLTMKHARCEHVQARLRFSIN

[10] = system: nine cardiac ion channels (including hERG); experiment: ChanTest Cardiac Channel Panel IC50 screen; details: human
CYP3A4 = CYP3A4 (Homo sapiens, UniProt P08684); experiment: CYP450 inhibition, cocktail approach in human liver microsomes; assay type: in vitro ADME
CYP3A4, sequence (P08684 whole entry): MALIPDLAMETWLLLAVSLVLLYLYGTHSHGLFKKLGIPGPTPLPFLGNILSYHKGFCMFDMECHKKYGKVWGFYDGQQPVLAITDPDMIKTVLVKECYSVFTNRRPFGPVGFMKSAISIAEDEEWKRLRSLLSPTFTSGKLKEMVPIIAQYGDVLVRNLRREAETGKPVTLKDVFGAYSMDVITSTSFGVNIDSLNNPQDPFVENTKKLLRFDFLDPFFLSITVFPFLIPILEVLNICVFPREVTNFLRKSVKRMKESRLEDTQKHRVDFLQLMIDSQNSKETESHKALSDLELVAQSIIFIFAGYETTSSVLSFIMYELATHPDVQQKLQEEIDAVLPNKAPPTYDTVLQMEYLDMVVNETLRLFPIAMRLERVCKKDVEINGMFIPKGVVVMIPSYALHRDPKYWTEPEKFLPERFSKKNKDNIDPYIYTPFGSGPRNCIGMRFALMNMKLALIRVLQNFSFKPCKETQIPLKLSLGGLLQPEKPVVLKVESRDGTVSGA

Met ID = assay type: in vitro ADME; details: rat liver microsomes
P-glycoprotein (Pgp) = P-glycoprotein (Pgp) (Homo sapiens, UniProt P08183); experiment: Permeability; assay type: in vitro ADME
P-glycoprotein (Pgp), sequence (P08183 whole entry): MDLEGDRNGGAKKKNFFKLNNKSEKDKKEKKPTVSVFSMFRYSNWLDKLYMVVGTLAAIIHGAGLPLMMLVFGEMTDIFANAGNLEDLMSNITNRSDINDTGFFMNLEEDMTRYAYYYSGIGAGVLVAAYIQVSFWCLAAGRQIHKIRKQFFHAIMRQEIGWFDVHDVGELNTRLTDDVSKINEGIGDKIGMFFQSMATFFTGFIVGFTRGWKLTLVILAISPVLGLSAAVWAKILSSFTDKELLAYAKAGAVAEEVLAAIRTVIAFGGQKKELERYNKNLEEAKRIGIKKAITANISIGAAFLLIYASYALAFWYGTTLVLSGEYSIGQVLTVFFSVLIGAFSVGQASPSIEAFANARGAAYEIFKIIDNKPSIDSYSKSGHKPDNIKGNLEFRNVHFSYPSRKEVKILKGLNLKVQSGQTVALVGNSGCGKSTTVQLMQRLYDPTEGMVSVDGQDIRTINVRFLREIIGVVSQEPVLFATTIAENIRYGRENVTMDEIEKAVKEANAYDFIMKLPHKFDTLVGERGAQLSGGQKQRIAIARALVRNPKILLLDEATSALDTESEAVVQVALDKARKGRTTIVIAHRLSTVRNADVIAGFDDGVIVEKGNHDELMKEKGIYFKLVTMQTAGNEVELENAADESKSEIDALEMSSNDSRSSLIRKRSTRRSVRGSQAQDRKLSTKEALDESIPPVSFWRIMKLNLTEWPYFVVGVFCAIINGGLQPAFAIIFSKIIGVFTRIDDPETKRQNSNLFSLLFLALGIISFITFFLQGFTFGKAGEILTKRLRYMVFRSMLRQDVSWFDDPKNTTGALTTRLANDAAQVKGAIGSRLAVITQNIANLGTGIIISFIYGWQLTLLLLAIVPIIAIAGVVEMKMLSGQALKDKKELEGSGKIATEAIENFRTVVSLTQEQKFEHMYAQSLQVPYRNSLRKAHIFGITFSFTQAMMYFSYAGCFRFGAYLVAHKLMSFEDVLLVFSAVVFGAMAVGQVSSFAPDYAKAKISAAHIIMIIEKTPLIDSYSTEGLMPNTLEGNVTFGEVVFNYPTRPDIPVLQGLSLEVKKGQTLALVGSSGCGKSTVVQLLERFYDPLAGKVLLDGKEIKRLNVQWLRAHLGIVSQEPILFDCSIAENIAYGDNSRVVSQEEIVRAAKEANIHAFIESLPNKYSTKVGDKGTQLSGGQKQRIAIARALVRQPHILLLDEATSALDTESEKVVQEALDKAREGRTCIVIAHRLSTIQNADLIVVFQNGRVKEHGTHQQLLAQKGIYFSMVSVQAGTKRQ

[11] = plasma protein binding, human; assay type: in vitro ADME
CYP1A2 [12] = experiment: CYP1A2 induction in cryopreserved hepatocytes; assay type: cell-based, human
CYP2C19 = CYP2C19 (Homo sapiens, UniProt P33261); experiment: CYP450 inhibition; assay type: in vitro ADME
CYP2C19, sequence (P33261 whole entry): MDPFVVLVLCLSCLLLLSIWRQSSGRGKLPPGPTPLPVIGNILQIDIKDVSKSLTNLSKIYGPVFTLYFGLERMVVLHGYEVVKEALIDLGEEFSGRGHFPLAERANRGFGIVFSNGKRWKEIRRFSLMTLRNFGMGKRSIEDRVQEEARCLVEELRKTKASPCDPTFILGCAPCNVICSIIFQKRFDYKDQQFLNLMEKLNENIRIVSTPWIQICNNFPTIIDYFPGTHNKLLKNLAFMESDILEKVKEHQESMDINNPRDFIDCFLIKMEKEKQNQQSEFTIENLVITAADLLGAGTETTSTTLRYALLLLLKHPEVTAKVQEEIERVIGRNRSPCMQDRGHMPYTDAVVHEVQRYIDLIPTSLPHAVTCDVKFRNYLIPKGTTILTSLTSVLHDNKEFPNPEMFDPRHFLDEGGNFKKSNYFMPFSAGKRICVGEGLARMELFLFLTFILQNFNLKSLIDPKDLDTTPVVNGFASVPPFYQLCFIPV

in vivo [13] = details: rat, iv, 1 mg/kg
CYP2C9 = CYP2C9 (Homo sapiens, UniProt P11712); experiment: CYP450 inhibition, cocktail approach in human liver microsomes; assay type: in vitro ADME
CYP2C9, sequence (P11712 whole entry): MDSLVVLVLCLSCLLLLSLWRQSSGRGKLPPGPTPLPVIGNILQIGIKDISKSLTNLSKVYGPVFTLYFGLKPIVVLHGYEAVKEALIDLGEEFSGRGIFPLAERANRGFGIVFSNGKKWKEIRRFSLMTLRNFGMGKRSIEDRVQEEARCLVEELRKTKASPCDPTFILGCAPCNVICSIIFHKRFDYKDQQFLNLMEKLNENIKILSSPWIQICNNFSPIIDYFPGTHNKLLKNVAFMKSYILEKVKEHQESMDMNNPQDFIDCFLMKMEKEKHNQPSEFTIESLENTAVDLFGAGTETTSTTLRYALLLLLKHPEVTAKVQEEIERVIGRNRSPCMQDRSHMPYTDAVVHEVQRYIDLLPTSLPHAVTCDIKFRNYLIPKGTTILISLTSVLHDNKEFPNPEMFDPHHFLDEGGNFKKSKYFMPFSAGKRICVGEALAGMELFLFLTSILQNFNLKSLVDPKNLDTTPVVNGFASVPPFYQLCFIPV

[14] = plasma protein binding, dog; assay type: in vitro ADME
[15] = system: panel of GPCRs, enzymes, ion channels, nuclear hormone receptors and transporters; experiment: wider selectivity panel; details: all targets except MAO-B

rat mGlu4, sequence (P31423 33-912): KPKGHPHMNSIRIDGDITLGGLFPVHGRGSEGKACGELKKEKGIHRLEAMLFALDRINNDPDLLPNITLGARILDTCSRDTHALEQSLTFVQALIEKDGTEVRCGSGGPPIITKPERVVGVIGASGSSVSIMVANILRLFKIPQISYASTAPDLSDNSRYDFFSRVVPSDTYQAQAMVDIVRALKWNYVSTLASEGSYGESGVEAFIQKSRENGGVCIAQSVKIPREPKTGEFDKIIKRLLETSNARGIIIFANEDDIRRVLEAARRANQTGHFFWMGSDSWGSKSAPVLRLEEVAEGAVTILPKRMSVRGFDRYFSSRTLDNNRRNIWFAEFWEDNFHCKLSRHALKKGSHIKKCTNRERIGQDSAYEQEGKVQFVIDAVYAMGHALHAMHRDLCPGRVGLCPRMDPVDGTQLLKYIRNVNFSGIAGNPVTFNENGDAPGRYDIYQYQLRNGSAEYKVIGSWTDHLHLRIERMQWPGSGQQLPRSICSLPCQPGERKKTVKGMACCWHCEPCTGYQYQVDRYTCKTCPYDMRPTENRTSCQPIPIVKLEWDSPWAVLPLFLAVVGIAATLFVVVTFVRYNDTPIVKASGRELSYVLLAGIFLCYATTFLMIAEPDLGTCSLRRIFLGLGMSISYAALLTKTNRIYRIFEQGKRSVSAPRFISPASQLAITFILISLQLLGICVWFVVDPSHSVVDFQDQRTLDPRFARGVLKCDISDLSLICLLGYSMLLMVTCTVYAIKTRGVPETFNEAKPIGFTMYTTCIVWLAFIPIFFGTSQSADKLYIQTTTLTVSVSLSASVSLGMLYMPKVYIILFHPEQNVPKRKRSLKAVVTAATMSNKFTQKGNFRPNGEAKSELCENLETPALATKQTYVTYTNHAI
CYP2D6, sequence (P10635 whole entry): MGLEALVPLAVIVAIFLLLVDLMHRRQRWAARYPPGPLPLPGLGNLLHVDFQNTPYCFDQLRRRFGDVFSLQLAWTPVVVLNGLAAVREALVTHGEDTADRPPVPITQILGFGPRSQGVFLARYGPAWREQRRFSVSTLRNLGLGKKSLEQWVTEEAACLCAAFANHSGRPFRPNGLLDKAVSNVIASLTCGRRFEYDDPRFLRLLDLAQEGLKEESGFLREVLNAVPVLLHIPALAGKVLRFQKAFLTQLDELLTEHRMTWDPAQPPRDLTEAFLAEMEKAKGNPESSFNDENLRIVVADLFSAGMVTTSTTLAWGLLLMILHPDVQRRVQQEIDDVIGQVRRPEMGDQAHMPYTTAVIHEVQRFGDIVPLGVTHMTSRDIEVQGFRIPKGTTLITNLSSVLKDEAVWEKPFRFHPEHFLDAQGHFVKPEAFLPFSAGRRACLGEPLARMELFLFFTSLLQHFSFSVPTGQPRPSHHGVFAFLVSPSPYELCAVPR

Compound `Fc1ccc(Nc2n[nH]c3cccnc23)cc1Cl` [Compound 26, N-(3-chloro-4-fluorophenyl)-1H-pyrazolo[4,3-b]pyridin-3-amine] has an EC50 (rat mGlu4) of 0.046 µM, a fraction unbound [1] of 0.019 and an IC50 (CYP2D6) of over 30 µM. The “activity against 96 kinase targets” value [2] was under 30%, the bioavailability (in vivo [3]; in vivo) was 95% and the AUC (in vivo [3]; plasma) was 7420 ng·h/mL. For the same compound, the Cmax (in vivo [3]; plasma) was 875 ng/mL, the Tmax (in vivo [3]; plasma) was 2 h and the fraction unbound ([4]; plasma protein binding (%Fu)) was 0.028. For the same compound, the fraction unbound ([4]; plasma protein binding (Fu), rat plasma, fraction unbound) was 0.028, the “brain AUC” value ([5]; rat CNS PO PBL (0−6 h)) was 18 415 ng·h/mL and the Kp at 6 h ([5]; rat, brain/plasma, po) was 2.1. For the same compound, the AUC ([5]; rat, plasma, po) was 8770 ng·h/mL, the fraction unbound [6] was 0.014 and the mini-AMES result (TA98 and TA100) was “negative”. The clearance [7] was 13 mL/min/kg, the half-life [7] was 3 h and the “activity at mGlu6” value (mGlu6) was “functionally interact (with equipotency)”. For the same compound, the “activity against MAO-B” value [8] was 330 nM, the IC50 (CYP1A2 [9]) was under 0.1 µM and the IC50 [10] was over 100 µM. The IC50 (CYP3A4) was over 30 µM, the major metabolite (Met ID) was “oxodefluorination” and the “substrate for P-glycoprotein” value (P-glycoprotein (Pgp)) was “not a substrate”. For the same compound, the Papp A→B (P-glycoprotein (Pgp); not told) was 24 ×10⁻⁶ cm/s, the Papp B→A (P-glycoprotein (Pgp); not told) was 14 ×10⁻⁶ cm/s and the “plasma protein binding (%Fu)” value [11] was 1.7%. For the same compound, the fraction unbound ([11]; plasma) was 0.017, the “CYP1A2 induction Emax” value (CYP1A2 [12]) was 104 fold-induction and the EC50 (CYP1A2 [12]; human) was 9.8 µM. The IC50 (CYP2C19) was 6.1 µM, the AUC (in vivo [13]) was 608 ng·h/mL and the MRT (in vivo [13]) was 2.2 h. For the same compound, the Vd (in vivo [13]) was 4 L/kg, the clearance (in vivo [13]) was 29 mL/min/kg and the half-life (in vivo [13]) was 1.52 h. The IC50 (CYP2C9) was 8.9 µM, the fraction unbound [14] was 0.009 and the “activity against wider panel of targets” value [15] was “inactive”.

Reference: paper PMC5031509 (ACS chemical neuroscience, 2016)
